In general, AC50 refers to the concentration giving half of the maximal activity seen. The low end stands for activity at low concentration, the high end for activity only at high concentration.

Each structure is given as a SMILES string. Some results are limits rather than exact numbers.

PKM2, sequence (P14618 whole entry): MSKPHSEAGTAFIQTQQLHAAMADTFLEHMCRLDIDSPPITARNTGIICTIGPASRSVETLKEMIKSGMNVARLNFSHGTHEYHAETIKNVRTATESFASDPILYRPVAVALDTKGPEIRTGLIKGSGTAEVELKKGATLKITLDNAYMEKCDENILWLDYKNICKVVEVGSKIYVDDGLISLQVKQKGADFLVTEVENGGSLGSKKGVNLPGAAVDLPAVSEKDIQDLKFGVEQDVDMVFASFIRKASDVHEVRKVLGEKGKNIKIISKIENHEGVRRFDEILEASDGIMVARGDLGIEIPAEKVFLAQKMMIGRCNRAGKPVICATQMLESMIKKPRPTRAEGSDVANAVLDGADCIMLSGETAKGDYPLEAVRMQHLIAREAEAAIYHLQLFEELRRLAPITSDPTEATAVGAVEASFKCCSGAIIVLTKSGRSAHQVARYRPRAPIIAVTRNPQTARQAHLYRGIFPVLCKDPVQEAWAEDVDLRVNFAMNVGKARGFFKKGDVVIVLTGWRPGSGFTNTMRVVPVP

This experiment addresses PKM2 (Homo sapiens, UniProt P14618). Nature of the experiment: PKM2 Assay (activation; LDH-coupled, NADH absorbance at 340 nm). Format: biochemical. The following applies: PKM2 50 ng/well, ADP 0.7 mM, PEP 0.15 mM, no FBP in Reaction Mix. As for the experimental part: • PKM2 stock enzyme solution was diluted in Reaction Buffer • 2 μL of compound was added into each well first, and then 180 μL of the Reaction Mix was added. • Reaction mixture with compound (without ADP) were incubated for 30 minutes at 4° C. • Plates were re-equilibrated to room temperature prior to adding 20 μL ADP to initiate the reaction. • Reaction progress was measured as changes in absorbance at 340 nm wavelength at room temperature (25° C.) Reaction Mix: PKM2 (50 ng/well), ADP (0.7 mM), PEP (0.15 mM), NADH (180 μM), LDH (2 units) in Reaction Buffer Reaction Buffer: 100 mM KCl, 50 mM Tris pH 7.5, 5 mM MgCl2, 1 mM DTT, 0.03% BSA.
In the case of `COCCn1c(=O)oc2cc(C)c(S(=O)(=O)Nc3ccc(F)c(C)c3)cc21`, the AC50 lay in the range of 1 to 10 µM.

In turn, `Cc1cc2oc(=O)n(C)c2cc1NS(=O)(=O)c1cc(Cl)ccc1Cl` registered an AC50 of 10 to 50 µM.

On to `Cn1c(=O)oc2cc(S(=O)(=O)N3CCN(S(=O)(=O)c4ccc5c(c4)OCCO5)CC3)ccc21`, for which the AC50 is less than 1 µM.

The molecule `CCn1c(=O)oc2ccc(NS(=O)(=O)c3cccs3)cc21` returned an AC50 greater than 100 µM.

`Cc1cc(C)cc(NS(=O)(=O)c2ccc3c(c2)sc(=O)n3C)c1` returned an AC50 of less than 1 µM.

`Cn1c(=O)sc2cc(S(=O)(=O)N3CCN(S(=O)(=O)c4c(F)cccc4F)CC3)ccc21` yielded an AC50 of less than 1 µM.

For the molecule `COc1cccc(S(=O)(=O)Nc2cc3c(cc2C)oc(=O)n3C)c1`, the AC50 fell in the range of 10 to 50 µM.

Turning to `Cn1c(=O)sc2cc(NS(=O)(=O)c3cccs3)ccc21`, the AC50 lay in the range of 10 to 50 µM.

In the case of `Cn1c(=O)oc2cc(S(=O)(=O)Nc3cc(F)cc(F)c3)ccc21`, the AC50 was in the range of 1 to 10 µM.

`Cn1c(=O)oc2cc(S(=O)(=O)Nc3ccc(F)c(C(F)(F)F)c3)ccc21` returned an AC50 of less than 1 µM.

Molecule `COc1ccc(Cl)cc1S(=O)(=O)N1CCN(S(=O)(=O)c2cc3c(cc2F)oc(=O)n3C)CC1` registered an AC50 of less than 1 µM.

`COCCn1c(=O)oc2cc(C)c(S(=O)(=O)Nc3ccc(F)c(Cl)c3)cc21` displayed an AC50 of 1 to 10 µM.

For `Cn1c(=O)oc2cc(S(=O)(=O)Nc3ccc(Cl)c(F)c3)ccc21`, the AC50 lay in the range of 1 to 10 µM.

`Cn1c(=O)sc2cc(S(=O)(=O)N3CCCN(S(=O)(=O)c4ccccc4)CC3)ccc21` gave an AC50 of 1 to 10 µM.

As to `Cc1cc(C)cc(NS(=O)(=O)c2cc3oc(=O)n(C)c3cc2F)c1`, the half-maximal activity concentration (AC50) was less than 1 µM.

`Cc1cc2sc(=O)sc2cc1S(=O)(=O)Nc1ccc(F)cc1` registered an AC50 of 1 to 10 µM.

Molecule `Cn1c(=O)oc2cc(S(=O)(=O)Nc3cc(F)cc(Cl)c3)ccc21` had an AC50 of less than 1 µM.

With `O=c1[nH]c2cc(NS(=O)(=O)c3ccccc3)ccc2s1`, the AC50 lay within 10 to 50 µM.

With `Cn1c(=O)sc2ccc(NS(=O)(=O)c3cccs3)cc21`, the AC50 lay in the range of 10 to 50 µM.

In the case of `COc1ccc(Cl)cc1S(=O)(=O)Nc1cc2[nH]c(=O)oc2cc1C`, the AC50 is 1 to 10 µM.

As to `Cc1cc(NS(=O)(=O)c2cc(C)c3c(c2)oc(=O)n3C)ccc1F`, the AC50 was less than 1 µM.

On to `COc1ccc(S(=O)(=O)Nc2cc3[nH]c(=O)oc3cc2Cl)cc1OC`, for which the AC50 was greater than 100 µM.

For `Cn1c(=O)oc2cc(S(=O)(=O)Nc3ccc(F)cc3)ccc21`, the AC50 was in the range of 1 to 10 µM.

`Cc1cc2oc(=O)n(C)c2cc1NS(=O)(=O)c1ccccc1C`: the AC50 fell in the range of 1 to 10 µM.

Consider `Cn1c(=O)oc2cc(S(=O)(=O)Nc3cc(Cl)cc(Cl)c3)ccc21`, for which the AC50 was less than 1 µM.

With `Cc1cc2c(cc1S(=O)(=O)N1CCN(S(=O)(=O)c3c(F)cccc3F)CC1)oc(=O)n2C`, the AC50 was 1 to 10 µM.

On to `Cn1c(=O)oc2cc(Cl)c(S(=O)(=O)Nc3ccc(F)cc3)cc21`, for which the AC50 fell in the range of 1 to 10 µM.

Molecule `CCC(C)n1c(=O)sc2ccc(NS(=O)(=O)c3cc(Cl)ccc3OC)cc21` (centres unmarked) came in with an AC50 of 1 to 10 µM.

`Cn1c(=O)sc2cc(S(=O)(=O)Nc3ccc(F)c(Cl)c3)ccc21` displayed an AC50 of less than 1 µM.

In turn, `Cc1cc2sc(=O)sc2cc1S(=O)(=O)Nc1ccccc1Cl` yielded an AC50 of 1 to 10 µM.

For the molecule `Cn1c(=O)sc2ccc(NS(=O)(=O)c3c(F)cccc3F)cc21`, the AC50 fell in the range of 1 to 10 µM.

Molecule `CCn1c(=O)oc2cc(C)c(NS(=O)(=O)c3cc(Cl)ccc3OC)cc21` gave an AC50 of 10 to 50 µM.

Regarding `Cc1ccc(NS(=O)(=O)c2ccc3c(c2)oc(=O)n3C)cc1C`, the AC50 is less than 1 µM.

For the molecule `Cc1cc(C)cc(NS(=O)(=O)c2cc3sc(=O)n(C)c3cc2Cl)c1`, the AC50 is less than 1 µM.

As to `Cc1cc2c(cc1S(=O)(=O)N1CCN(S(=O)(=O)c3ccc4c(c3)OCCO4)CC1)oc(=O)n2C`, the AC50 is less than 1 µM.

Molecule `CCn1c(=O)sc2ccc(NS(=O)(=O)c3cc(C)ccc3OC)cc21` yielded an AC50 of 1 to 10 µM.

The molecule `Cn1c(=O)oc2cc(S(=O)(=O)NC3CCCCC3)ccc21` registered an AC50 of 1 to 10 µM.

With `COc1ccc(C)cc1S(=O)(=O)Nc1cc2c(cc1Cl)oc(=O)n2C`, the AC50 is 1 to 10 µM.

With `COc1ccc(Cl)cc1NS(=O)(=O)c1cc2sc(=O)sc2cc1C`, the AC50 lay within 1 to 10 µM.

On to `Cc1cc(NS(=O)(=O)c2cc(CN3CCOCC3)c3c(c2)oc(=O)n3C)ccc1F`, for which the AC50 was 1 to 10 µM.

Take `O=c1oc2cc(S(=O)(=O)Nc3ccc(F)cc3)ccc2n1CCc1ccccc1`: the AC50 was 1 to 10 µM.

`CCn1c(=O)oc2cc(Cl)c(S(=O)(=O)Nc3ccc(Cl)cc3)cc21` registered an AC50 of 1 to 10 µM.

On to `CC(=O)c1ccc(S(=O)(=O)Nc2cc3c(cc2C)oc(=O)n3C)cc1`, for which the AC50 lay within 10 to 50 µM.

Consider `Cc1cc(NS(=O)(=O)c2cc3c(cc2C)oc(=O)n3C)ccc1Cl`, for which the AC50 was less than 1 µM.

`COCCn1c(=O)oc2cc(S(=O)(=O)Nc3cccc(Cl)c3)cc(C)c21`: the AC50 was less than 1 µM.

Regarding `CCn1c(=O)oc2cc(Cl)c(S(=O)(=O)Nc3ccccc3Cl)cc21`, the AC50 was greater than 100 µM.

With `Cc1cc2oc(=O)n(C)c2cc1S(=O)(=O)Nc1ccc(Cl)c(C(F)(F)F)c1`, the AC50 lay in the range of 1 to 10 µM.

Take `COc1ccc(C)cc1S(=O)(=O)Nc1cc2[nH]c(=O)oc2cc1C`: the AC50 was in the range of 10 to 50 µM.

Take `Cc1cc2oc(=O)n(C)c2cc1S(=O)(=O)Nc1ccc(Cl)c(F)c1`: the AC50 was in the range of 1 to 10 µM.

Regarding `Cc1cc(NS(=O)(=O)c2cc(CN(C)C)c3c(c2)oc(=O)n3C)ccc1F`, the AC50 is greater than 100 µM.

The molecule `Cn1c(=O)oc2cc(S(=O)(=O)Nc3ccccc3Cl)ccc21` showed an AC50 of 1 to 10 µM.

`Cc1cc2oc(=O)n(C)c2cc1NS(=O)(=O)c1ccc(F)c(F)c1` had an AC50 greater than 100 µM.

As for `COc1ccc(C)cc1S(=O)(=O)Nc1ccc2sc(=O)n(C)c2c1`, the AC50 lay in the range of 1 to 10 µM.

`COc1ccc(S(=O)(=O)N2CCN(S(=O)(=O)c3ccc4c(c3)sc(=O)n4C)CC2)cc1`: the AC50 was less than 1 µM.

In the case of `COc1ccc(Cl)cc1S(=O)(=O)Nc1cc2c(cc1C)oc(=O)n2C` [drawing 27], the AC50 is greater than 100 µM.

In turn, `Cn1c(=O)sc2cc(S(=O)(=O)Nc3ccc(F)cc3)ccc21` gave an AC50 of less than 1 µM.

Turning to `Cn1c(=O)oc2cc(F)c(S(=O)(=O)Nc3ccccc3)cc21` [drawing 242], the AC50 lay in the range of 1 to 10 µM.

`Cc1cc(NS(=O)(=O)c2ccc3c(c2)sc(=O)n3C)ccc1F`: the AC50 was less than 1 µM.

In turn, `COc1ccc(C)cc1S(=O)(=O)Nc1ccc(NS(=O)(=O)c2ccc3c(c2)oc(=O)n3C)cc1` returned an AC50 of 1 to 10 µM.

`Cc1cc2oc(=O)n(C)c2cc1NS(=O)(=O)c1c(F)cccc1F` had a half-maximal activity concentration (AC50) greater than 100 µM.

The molecule `Cc1cc(C)cc(NS(=O)(=O)c2cc3c(cc2Cl)oc(=O)n3C)c1` yielded an AC50 of less than 1 µM.

`Cc1cc2oc(=O)n(C)c2cc1S(=O)(=O)N1CCN(C(=O)Cc2ccc(C(F)(F)F)cc2)CC1` gave an AC50 greater than 100 µM.

Regarding `O=c1[nH]c2cc(NS(=O)(=O)c3cccc(Cl)c3)c(Cl)cc2o1`, the AC50 was in the range of 10 to 50 µM.

Molecule `COc1ccc(Cl)cc1S(=O)(=O)N1CCN(S(=O)(=O)c2ccc3c(c2)sc(=O)n3C)CC1` came in with an AC50 of 1 to 10 µM.

Consider `COc1ccc(Cl)cc1S(=O)(=O)N1CCN(S(=O)(=O)c2ccc3c(c2)oc(=O)n3C)CC1`, for which the AC50 was in the range of 1 to 10 µM.

For the molecule `Cc1ccc(NS(=O)(=O)c2cc3c(cc2C)oc(=O)n3C)cc1F`, the AC50 was less than 1 µM.

In the case of `CCn1c(=O)sc2ccc(NS(=O)(=O)c3cccs3)cc21`, the concentration at half-maximal activity (AC50) lay in the range of 10 to 50 µM.

With `Cn1c(=O)oc2cc(S(=O)(=O)Nc3ccc4c(c3)OCCO4)ccc21`, the AC50 fell in the range of 1 to 10 µM.

As to `Cc1cc2oc(=O)n(C)c2cc1S(=O)(=O)N1CCN(c2ccc(C(F)(F)F)cn2)CC1`, the AC50 fell in the range of 1 to 10 µM.

Turning to `COCCn1c(=O)oc2cc(S(=O)(=O)Nc3ccc(F)c(Cl)c3)ccc21`, the AC50 is less than 1 µM.

Take `Cn1c(=O)oc2cc(S(=O)(=O)Nc3cccc4ncccc34)ccc21`: the AC50 lay within 10 to 50 µM.

Molecule `O=c1[nH]c2cc(NS(=O)(=O)c3cccc(Cl)c3)ccc2s1` had an AC50 of 10 to 50 µM.

On to `Cc1ccc(NS(=O)(=O)c2ccc3c(c2)oc(=O)n3C)cc1F`, for which the AC50 was 1 to 10 µM.

For `Cn1c(=O)oc2cc(S(=O)(=O)Nc3ccc(OC(F)(F)F)c(Br)c3)ccc21`, the AC50 was in the range of 1 to 10 µM.

In the case of `O=c1oc2cc(S(=O)(=O)Nc3ccc(Cl)cc3)ccc2n1Cc1ccccc1`, the AC50 was in the range of 1 to 10 µM.

Molecule `COc1cc(NS(=O)(=O)c2ccc3c(c2)oc(=O)n3C)cc(OC)c1` displayed an AC50 of less than 1 µM.

As for `COCCn1c(=O)oc2cc(S(=O)(=O)Nc3ccc(F)c(Cl)c3)cc(C)c21`, the AC50 is less than 1 µM.

`COc1cc(NS(=O)(=O)c2cc3c(cc2C)oc(=O)n3C)cc(OC)c1` yielded an AC50 of 1 to 10 µM.

`Cc1ccc(NS(=O)(=O)c2cc3c(cc2C)oc(=O)n3C)cc1C`: the AC50 was less than 1 µM.

For the molecule `Cc1cc2sc(=O)sc2cc1S(=O)(=O)Nc1ccccc1F`, the AC50 lay within 10 to 50 µM.

For the molecule `Cn1c(=O)sc2cc(S(=O)(=O)Nc3ccc4ccccc4c3)ccc21`, the AC50 is less than 1 µM.

`O=c1sc2ccc(S(=O)(=O)Nc3ccc(Cl)cc3)cc2s1` yielded an AC50 of 1 to 10 µM.

As for `Cn1c(=O)oc2cc(S(=O)(=O)Nc3ccccc3)ccc21`, the AC50 lay within 1 to 10 µM.

For the molecule `Cn1c(=O)oc2cc(F)c(S(=O)(=O)Nc3ccccc3)cc21` [drawing 56], the AC50 was less than 1 µM.

For the molecule `COCCn1c(=O)oc2cc(S(=O)(=O)Nc3ccc(F)c(C)c3)cc(C)c21`, the AC50 is less than 1 µM.

As to `Cc1cc(C)cc(NS(=O)(=O)c2ccc3c(c2)oc(=O)n3C)c1`, the AC50 is less than 1 µM.

In turn, `Cc1cc2oc(=O)n(C)c2cc1S(=O)(=O)Nc1ccc(Cl)cc1` showed an AC50 of less than 1 µM.

In turn, `Cn1c(=O)oc2cc(S(=O)(=O)Nc3cccc(C(F)(F)F)c3)ccc21` came in with an AC50 of 1 to 10 µM.

As to `O=c1[nH]c2cc(NS(=O)(=O)c3cccs3)c(Cl)cc2o1`, the AC50 was in the range of 1 to 10 µM.
